Experimental data reported in patent publication US4724259A, “Azo dyes and liquid-crystalline materials containing these dyes” (BASF Aktiengesellschaft, priority 1983, dated 1988).

How the values were obtained:
Format in all cases: physicochemical
[1] = Solubility L in liquid crystal mixture (saturated solution, comparison of extinction); conditions: room temperature, percentages by weight unless stated otherwise
[2] = Degree of order S in nematic broad-range mixture (dichroic ratio, homogeneous edge orientation, ground PVA cells); conditions: room temperature
Experimental: The degree of order S was determined using the conventional equation [formula] the measurement being carried out in commercial measuring cells with a homogeneous edge orientation (ground PVA). The dichroic ratio CR was determined by measuring the extinctions E" (measurement with light polarized parallel to the preferred direction of the nematic phase) and E^.perp. (measurement with light polarized perpendicular to the preferred direction of the nematic phase) and using the relationship CR=E"/E^.perp. the dye concentration being chosen so that E" was from 1 to 2. The measurements were carried out in a Beckmann Acta CIII spectrophotometer.

[3] = Light stability: high-speed exposure of the measuring cell in a Suntest from Hanau; conditions: 25° C., at the stated λmax
Experimental: The light stability was determined by high-speed exposure of the measuring cell in a Suntest from Hanau, at 25° C. In this procedure, the decrease in E" was measured. […] E" was determined at the stated λmax values.

[4] = ZLI 1840 (Merck), 1 week stirring

| Structure (SMILES) | Solubility L [1, 4] [%] | Degree of order S ([2]; ZLI 1840 (Merck)) | E80% " (exposure time after which E"o has decreased to 80%) [3] [h] | Eo " (initial extinction) [3] | Solubility L ([1]; ZLI 1957/5 (Merck)) [%] | Degree of order S ([2]; ZLI 1957/5 (Merck)) |
| --- | --- | --- | --- | --- | --- | --- |
| Cc1cc(O)ccc1N=Nc1ccc(N=Nc2ccc(N=Nc3ccc(OCc4ccccc4)cc3C)cc2)cc1 [Example 1, 4-(2-methyl-4-hydroxyphenylazo)-4'-(2-methyl-4-benzyloxyphenylazo)-azobenzene] | 0.9 | 0.75 |  |  |  |  |
| Cc1cc(C)c(COc2ccc(N=Nc3ccc(N=Nc4ccc(N=Nc5ccc(OCc6c(C)cc(C)cc6C)cc5C)cc4)cc3)c(C)c2)c(C)c1 [Example 3] | 1.0 | 0.77 | 110 | 1.95 |  |  |
| Cc1cc(OCc2ccc(C(C)(C)C)cc2)ccc1N=Nc1ccc(N=Nc2ccc(N=Nc3ccc(OCc4ccc(C(C)(C)C)cc4)cc3C)cc2)cc1 [Example 4] | 0.3 | 0.75 |  |  |  |  |
| CCCCCC1CCC(c2ccc(COc3ccc(N=Nc4ccc(N=Nc5ccc(N=Nc6ccc(O)cc6C)cc5)cc4)c(C)c3)cc2)CC1 (centres unmarked) [Example 5] | 1.9 | 0.79 | 70 | 1.23 |  |  |

Now from value to compound:

| Solubility L [1, 4] [%] | Degree of order S ([2]; ZLI 1840 (Merck)) | E80% " (exposure time after which E"o has decreased to 80%) [3] [h] | Eo " (initial extinction) [3] | Solubility L ([1]; ZLI 1957/5 (Merck)) [%] | Degree of order S ([2]; ZLI 1957/5 (Merck)) | Structure (SMILES) |
| --- | --- | --- | --- | --- | --- | --- |
| 0.3 | 0.79 |  |  |  |  | CCCCC1CCC(c2ccc(COc3ccc(N=Nc4ccc(N=Nc5ccc(N=Nc6ccc(OCc7ccc(C8CCC(CCCC)CC8)cc7)cc6C)cc5)cc4)c(C)c3)cc2)CC1 (centres unmarked) [Example 8] |
| 0.8 | 0.81 | 140 | 1.51 |  |  | CCCCCC1CCC(c2ccc(COc3ccc(N=Nc4ccc(N=Nc5ccc(N=Nc6ccc(OCc7ccc(C8CCC(CCCCC)CC8)cc7)cc6C)cc5)cc4)c(C)c3)cc2)CC1 (centres unmarked) [Example 9] |
|  |  |  |  | 0.2 | 0.81 | CCCCCC1CCC(c2ccc(COc3cc(C)c(N=Nc4ccc(N=Nc5ccc(N=Nc6c(C)cc(OCc7ccc(C8CCC(CCCCC)CC8)cc7)cc6C)cc5)cc4)c(C)c3)cc2)CC1 (centres unmarked) [Example 17] |
|  |  |  |  | 3 | 0.80 | CCCCCc1ccc(COc2cc(C)c(N=Nc3ccc(N=Nc4ccc(N=Nc5c(C)cc(OCc6ccc(CCCCC)cc6)cc5C)cc4)cc3)c(C)c2)cc1 [Example 16] |
|  |  |  |  | 0.7 | 0.76 | Cc1cc(OCc2cc(C(C)(C)C)cc(C(C)(C)C)c2)ccc1N=Nc1ccc(N=Nc2ccc(N=Nc3ccc(OCc4cc(C(C)(C)C)cc(C(C)(C)C)c4)cc3C)cc2)cc1 [Example 11] |
|  |  |  |  | 1.2 | 0.81 | CCCCCc1ccc(COc2ccc(N=Nc3ccc(N=Nc4ccc(N=Nc5ccc(OCc6ccc(CCCCC)cc6)cc5C)cc4)cc3)c(C)c2)cc1 [Example 10] |
